Values quoted from earlier work as cited in patent US12491200B2, “Compositions and methods using cannabinoids for treating stammering/stuttering and symptoms of Tourette syndrome” (priority 2019, dated 2025).

How the values were obtained:
Tourette syndrome = settings: patients aged between 16 and 19; very high doses
tic disorders = settings: for tic symptom score: compared with placebo; for most common adverse events: tic disorders

N[C@@H](Cc1ccc(O)c(O)c1)C(=O)O [levodopa]
speech fluency (developmental stuttering): worsening speech fluency

CCCCCc1cc(O)c2c(c1)OC(C)(C)[C@@H]1CCC(C)=C[C@@H]21 [synthetic THC, delta-9-tetrahydrocannabinol]
symptoms such as vocal blocking tics and comorbid conditions (Tourette syndrome): significant improvement

Cc1nc2n(c(=O)c1CCN1CCC(c3noc4cc(F)ccc34)CC1)CCCC2 [risperidone]
tic symptom score (tic disorders): significantly improve tic symptom score | most common adverse events (tic disorders): drowsiness and appetite | speech fluency (developmental stuttering): improve speech fluency

CCN(CC)CCNC(=O)c1cc(S(C)(=O)=O)ccc1OC [tiapride]
most common adverse events (tic disorders): dizziness, nausea, and dry mouth

O=C(CCCN1CCC(O)(c2ccc(Cl)cc2)CC1)c1ccc(F)cc1 [haloperidol]
tic symptom score (tic disorders): significantly improve tic symptom score | most common adverse events (tic disorders): drowsiness, extrapyramidal reactions, and dry mouth | speech fluency (developmental stuttering): improve speech fluency

OCCOCCN1CCN(C2=Nc3ccccc3Sc3ccccc32)CC1 [quetiapine]
tic symptom score (tic disorders): significantly improve tic symptom score

O=C1Cc2cc(CCN3CCN(c4nsc5ccccc45)CC3)c(Cl)cc2N1 [ziprasidone]
tic symptom score (tic disorders): significantly improve tic symptom score

O=C1CCc2ccc(OCCCCN3CCN(c4cccc(Cl)c4Cl)CC3)cc2N1 [aripiprazole]
tic symptom score (tic disorders): significantly improve tic symptom score | most common adverse events (tic disorders): dizziness, nausea, and dry mouth
